# PubChem BioAssay AID2060357 (Molecular Pharmacology Branch, DTP, NCI, 2025)
# Test system: 292921-168-R-J2-PDC spheroids with HUVEC/MSC, viability
# Assay: Anticancer human tumor 292921-168-R-J2-PDC patient-derived pancreatic carcinoma cell line growth inhibition [TAK]
# Details: for IC50: curve of first compound; for viability, T/C: stronger effect = lower value
# Method in brief: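 Spheroids of 60% malignant cells, 25% HUVEC and 15% hMSC were exposed to targeted agents combined with TAK-243 or ipatasertib. Concentrations started at or near clinical Cmax (10 microM if unknown) and descended in half-log steps.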
# [1] = second compound 0.3 µM, first compound 0.00949 µM
# [2] = second compound 0.3 µM, first compound 0.03 µM
# [3] = second compound 0.949 µM, first compound 0.00949 µM
# [4] = second compound 0.949 µM, first compound 0.03 µM
# [5] = second compound 3 µM, first compound 0.00949 µM
# [6] = second compound 3 µM, first compound 0.03 µM
# [7] = second compound 9.49 µM, first compound 0.00949 µM
# [8] = second compound 9.49 µM, first compound 0.03 µM
# [9] = second compound 30 µM, first compound 0.00949 µM
# [10] = second compound 30 µM, first compound 0.03 µM
# 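Note: spheroids exposed to drugs for seven days before readout.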
smiles,measurement,setting,value
CC(C)CC(NC(=O)C(Cc1ccccc1)NC(=O)c1cnccn1)B(O)O (stereo not given) + CC(C)NCC(C(=O)N1CCN(c2ncnc3c2C(C)CC3O)CC1)c1ccc(Cl)cc1,IC50,second compound 0.3 µM,4.58 nM
same,IC50,second compound 0.949 µM,4.11 nM
same,IC50,second compound 3 µM,4.07 nM
same,IC50,second compound 9.49 µM,3.99 nM
same,IC50,second compound 30 µM,< 0.0316 nM
same,"viability, T/C","second compound 0.3 µM, first compound 31.6 pM",83.7%
same,"viability, T/C","second compound 0.3 µM, first compound 0.0001 µM",86.5%
same,"viability, T/C","second compound 0.3 µM, first compound 0.000316 µM",88.6%
same,"viability, T/C","second compound 0.3 µM, first compound 0.001 µM",89.3%
same,"viability, T/C","second compound 0.3 µM, first compound 0.00316 µM",69%
same,"viability, T/C","second compound 0.3 µM, first compound 0.01 µM",9.99%
same,"viability, T/C","second compound 0.949 µM, first compound 31.6 pM",80.2%
same,"viability, T/C","second compound 0.949 µM, first compound 0.0001 µM",81.7%
same,"viability, T/C","second compound 0.949 µM, first compound 0.000316 µM",83.5%
same,"viability, T/C","second compound 0.949 µM, first compound 0.001 µM",80.9%
same,"viability, T/C","second compound 0.949 µM, first compound 0.00316 µM",62.9%
same,"viability, T/C","second compound 0.949 µM, first compound 0.01 µM",6.56%
same,"viability, T/C","second compound 3 µM, first compound 31.6 pM",73.9%
same,"viability, T/C","second compound 3 µM, first compound 0.0001 µM",76.1%
same,"viability, T/C","second compound 3 µM, first compound 0.000316 µM",72.6%
same,"viability, T/C","second compound 3 µM, first compound 0.001 µM",78.6%
same,"viability, T/C","second compound 3 µM, first compound 0.00316 µM",62.1%
same,"viability, T/C","second compound 3 µM, first compound 0.01 µM",6.46%
same,"viability, T/C","second compound 9.49 µM, first compound 31.6 pM",64.1%
same,"viability, T/C","second compound 9.49 µM, first compound 0.0001 µM",63%
same,"viability, T/C","second compound 9.49 µM, first compound 0.000316 µM",58.7%
same,"viability, T/C","second compound 9.49 µM, first compound 0.001 µM",58.5%
same,"viability, T/C","second compound 9.49 µM, first compound 0.00316 µM",62.8%
same,"viability, T/C","second compound 9.49 µM, first compound 0.01 µM",4.62%
same,"viability, T/C","second compound 30 µM, first compound 31.6 pM",41.7%
same,"viability, T/C","second compound 30 µM, first compound 0.0001 µM",40.5%
same,"viability, T/C","second compound 30 µM, first compound 0.000316 µM",41.3%
same,"viability, T/C","second compound 30 µM, first compound 0.001 µM",42.8%
same,"viability, T/C","second compound 30 µM, first compound 0.00316 µM",38.7%
same,"viability, T/C","second compound 30 µM, first compound 0.01 µM",6.44%
CC(=O)Nc1cccc(-n2c(=O)n(C3CC3)c(=O)c3c(Nc4ccc(I)cc4F)n(C)c(=O)c(C)c32)c1 + CC(C)NCC(C(=O)N1CCN(c2ncnc3c2C(C)CC3O)CC1)c1ccc(Cl)cc1,IC50,second compound 0.3 µM,0.45 nM
same,IC50,second compound 0.949 µM,0.337 nM
same,IC50,second compound 3 µM,0.209 nM
same,IC50,second compound 9.49 µM,0.11 nM
same,IC50,second compound 30 µM,< 0.0949 nM
same,"viability, T/C","second compound 0.3 µM, first compound 94.9 pM",74.9%
same,"viability, T/C","second compound 0.3 µM, first compound 0.0003 µM",59.5%
same,"viability, T/C","second compound 0.3 µM, first compound 0.000949 µM",32.6%
same,"viability, T/C","second compound 0.3 µM, first compound 0.003 µM",25.7%
same,"viability, T/C",[1],19.8%
same,"viability, T/C",[2],13.9%
same,"viability, T/C","second compound 0.949 µM, first compound 94.9 pM",70.5%
same,"viability, T/C","second compound 0.949 µM, first compound 0.0003 µM",51.8%
same,"viability, T/C","second compound 0.949 µM, first compound 0.000949 µM",35.6%
same,"viability, T/C","second compound 0.949 µM, first compound 0.003 µM",26.6%
same,"viability, T/C",[3],17.8%
same,"viability, T/C",[4],13.1%
same,"viability, T/C","second compound 3 µM, first compound 94.9 pM",63.8%
same,"viability, T/C","second compound 3 µM, first compound 0.0003 µM",44%
same,"viability, T/C","second compound 3 µM, first compound 0.000949 µM",28.8%
same,"viability, T/C","second compound 3 µM, first compound 0.003 µM",22.5%
same,"viability, T/C",[5],16.6%
same,"viability, T/C",[6],12.3%
same,"viability, T/C","second compound 9.49 µM, first compound 94.9 pM",51.4%
same,"viability, T/C","second compound 9.49 µM, first compound 0.0003 µM",39%
same,"viability, T/C","second compound 9.49 µM, first compound 0.000949 µM",25.4%
same,"viability, T/C","second compound 9.49 µM, first compound 0.003 µM",18.8%
same,"viability, T/C",[7],14.3%
same,"viability, T/C",[8],10.7%
same,"viability, T/C","second compound 30 µM, first compound 94.9 pM",34.9%
same,"viability, T/C","second compound 30 µM, first compound 0.0003 µM",26.6%
same,"viability, T/C","second compound 30 µM, first compound 0.000949 µM",20.3%
same,"viability, T/C","second compound 30 µM, first compound 0.003 µM",16%
same,"viability, T/C",[9],12.2%
same,"viability, T/C",[10],9.91%
Cn1cnc2c(F)c(Nc3ccc(Br)cc3Cl)c(C(=O)NOCCO)cc21 + CC(C)NCC(C(=O)N1CCN(c2ncnc3c2C(C)CC3O)CC1)c1ccc(Cl)cc1,IC50,second compound 0.3 µM,< 9.49 nM
same,IC50,second compound 0.949 µM,< 9.49 nM
same,IC50,second compound 3 µM,< 9.49 nM
same,IC50,second compound 9.49 µM,< 9.49 nM
same,IC50,second compound 30 µM,< 9.49 nM
same,"viability, T/C",[1],49.9%
same,"viability, T/C",[2],36.5%
same,"viability, T/C","second compound 0.3 µM, first compound 0.0949 µM",30.9%
same,"viability, T/C","second compound 0.3 µM, first compound 0.3 µM",26.8%
same,"viability, T/C","second compound 0.3 µM, first compound 0.949 µM",21.4%
same,"viability, T/C","second compound 0.3 µM, first compound 3 µM",13.1%
same,"viability, T/C",[3],45.3%
same,"viability, T/C",[4],34.7%
same,"viability, T/C","second compound 0.949 µM, first compound 0.0949 µM",30.9%
same,"viability, T/C","second compound 0.949 µM, first compound 0.3 µM",28.1%
same,"viability, T/C","second compound 0.949 µM, first compound 0.949 µM",21.5%
same,"viability, T/C","second compound 0.949 µM, first compound 3 µM",13%
same,"viability, T/C",[5],39.5%
same,"viability, T/C",[6],30.3%
same,"viability, T/C","second compound 3 µM, first compound 0.0949 µM",27.6%
same,"viability, T/C","second compound 3 µM, first compound 0.3 µM",24.1%
same,"viability, T/C","second compound 3 µM, first compound 0.949 µM",17.3%
same,"viability, T/C","second compound 3 µM, first compound 3 µM",11.8%
same,"viability, T/C",[7],32.2%
same,"viability, T/C",[8],24.5%
same,"viability, T/C","second compound 9.49 µM, first compound 0.0949 µM",22.6%
same,"viability, T/C","second compound 9.49 µM, first compound 0.3 µM",20.6%
same,"viability, T/C","second compound 9.49 µM, first compound 0.949 µM",15.6%
same,"viability, T/C","second compound 9.49 µM, first compound 3 µM",10.9%
same,"viability, T/C",[9],25.3%
same,"viability, T/C",[10],21.2%
same,"viability, T/C","second compound 30 µM, first compound 0.0949 µM",18.4%
same,"viability, T/C","second compound 30 µM, first compound 0.3 µM",17.5%
same,"viability, T/C","second compound 30 µM, first compound 0.949 µM",13.8%
same,"viability, T/C","second compound 30 µM, first compound 3 µM",8.92%
